Measured values published in PubChem BioAssay AID652247 (Sanford-Burnham Center for Chemical Genomics, 2013).
The source made the active and inactive calls. The rule behind the calls is not given here.

Biological target: NEDD8-conjugating enzyme Ubc12 (Homo sapiens) + NEDD8-activating enzyme E1 regulatory subunit (Homo sapiens) (UniProt P61081+Q13564)
Experiment: NEDD8 conjugation to CUL1 blockade – biochemical, TR-FRET, dose response (AID 652247)
Conditions: in vitro CUL1 neddylation

Chain of NEDD8-conjugating enzyme Ubc12 (Homo sapiens) + NEDD8-activating enzyme E1 regulatory subunit (Homo sapiens) (P61081 whole entry, looked up): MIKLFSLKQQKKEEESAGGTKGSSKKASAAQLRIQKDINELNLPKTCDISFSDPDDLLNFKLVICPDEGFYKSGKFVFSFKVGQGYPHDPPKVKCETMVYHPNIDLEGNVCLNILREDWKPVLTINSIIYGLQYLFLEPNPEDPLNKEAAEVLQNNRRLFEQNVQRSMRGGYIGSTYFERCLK
Chain of NEDD8-conjugating enzyme Ubc12 (Homo sapiens) + NEDD8-activating enzyme E1 regulatory subunit (Homo sapiens) (Q13564 whole entry, looked up): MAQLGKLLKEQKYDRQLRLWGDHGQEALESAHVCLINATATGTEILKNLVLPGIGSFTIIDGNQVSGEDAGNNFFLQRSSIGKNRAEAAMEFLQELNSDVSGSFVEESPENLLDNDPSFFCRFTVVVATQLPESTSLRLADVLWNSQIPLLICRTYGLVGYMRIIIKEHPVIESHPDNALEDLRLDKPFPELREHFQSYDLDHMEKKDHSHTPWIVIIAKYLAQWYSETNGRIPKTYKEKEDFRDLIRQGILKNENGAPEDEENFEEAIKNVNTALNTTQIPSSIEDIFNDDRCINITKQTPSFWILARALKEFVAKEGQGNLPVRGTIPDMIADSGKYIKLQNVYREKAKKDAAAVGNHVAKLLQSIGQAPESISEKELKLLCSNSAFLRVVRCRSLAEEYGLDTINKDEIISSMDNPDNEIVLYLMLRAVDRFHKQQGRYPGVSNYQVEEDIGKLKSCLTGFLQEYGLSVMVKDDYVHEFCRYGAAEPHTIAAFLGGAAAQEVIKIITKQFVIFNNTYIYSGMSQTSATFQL

Row | IC50 | Structure (SMILES)
1 | inactive | CCC(=O)N/C(N)=N/c1nc(C)c2cc(OC)ccc2n1
2 | inactive | COCCN(C(=O)COC(=O)c1cc2ccccc2cc1OC)c1c(N)n(Cc2ccccc2)c(=O)[nH]c1=O
3 | inactive | O=C(O)c1ccc(/C=N/NC(=O)c2ccc(CN3c4cccc5cccc(c45)S3(=O)=O)cc2)cc1
4 | inactive | O=C(O)c1ccc2c(=O)n3c(nc2c1)/C(=C/c1ccc(OC(F)F)cc1OC(F)F)CC3
5 | 6.88 µM | COc1ccc(-c2cc3ccc(OCc4nn[nH]n4)cc3oc2=O)cc1OC
6 | inactive | CCOc1ccccc1NC(=O)CN1c2cccc3cccc(c23)S1(=O)=O
7 | > 100 µM (inactive) | Cc1ccc(C(C(=O)NCC2CCCO2)N(C(=O)c2snc(C(N)=O)c2N)c2ccc(F)cc2)o1 (centres undefined)
8 | inactive | CSc1cnc2c(=O)n(C)c(=O)[nH]c2n1
9 | inactive | CN(C)CCNc1nc(-c2ccco2)c2c(c1C#N)CC(C)(C)OC2
10 | 17 µM | CCn1c(=O)c(-c2ccccc2)c(O)c2ccccc21
11 | inactive | O=c1[nH]cnc2nc(-c3ccccc3)c(-c3ccccc3)nc12
12 | inactive | CCOC(=O)c1cc2c(=O)n3ccccc3nc2n(C(C)C)c1=NC(=O)c1ccncc1
13 | inactive | O=C(O)CCc1ccc(-c2ccccc2)n1CC1CCCO1 (centres undefined)
14 | 9.39 µM | Cc1cccn2c(=O)c3cc(C(=O)NC4CCCC4)sc3nc12
15 | inactive | CCCCc1c(O)n2c(nc3ccccc32)[nH]c1=O
16 | inactive | COC(=O)c1ccc(C(=O)OC)c(=O)[nH]1
17 | inactive | COc1ccc(C(C(=O)NCC2CCCO2)N(C(=O)c2snc(C(N)=O)c2N)c2ccccc2)cc1OC (centres undefined)
18 | inactive | CC1(C)CC(NC(=O)COc2ccc3c4c(c(=O)oc3c2)CCCC4)CC(C)(C)N1
19 | 16.5 µM | N=c1c(C(=O)NCCN2CCOCC2)cc2c(=O)n3ccccc3nc2n1Cc1ccc(F)cc1
20 | inactive | CCOc1ccc2[nH]c(C(=O)N/N=C/c3cccc(OC)c3OC)cc2c1
21 | inactive | O=C(O)c1sc2cc(C(F)(F)F)cnc2c1-c1cccs1
22 | inactive | COCCNC(=O)CSc1ccc(-c2nc3ccccc3[nH]2)cn1
23 | inactive | COC(=O)c1sc2nc3c(cc2c1N)COC(C)(C)C3
24 | inactive | O=C(N/N=C/c1cccnc1)c1ccc(CN2c3cccc4cccc(c34)S2(=O)=O)cc1
25 | 17.5 µM | Cc1ccc(Cn2c(=N)c(C(=O)NCCN3CCOCC3)cc3c(=O)n4ccccc4nc32)cc1
26 | inactive | C=CCNC(=S)N/N=C/c1ccc(N(CC)Cc2ccccc2)cc1

Row | IC50 | Structure (SMILES)
27 | inactive | COCCNC(=O)c1ccc2c3n(nc2c1)-c1ccc(C)cc1CO3
28 | inactive | Cc1ccccc1NC(=O)NNC(=O)c1ccc2ccccc2c1O
29 | inactive | Cc1ccc2c(c1)COc1c3ccc(C(=O)NCC4CC4)cc3nn1-2
30 | inactive | CS(=O)(=O)N(CC(=O)N/N=C/c1cccc2c1OCCO2)c1ccccc1Br
31 | inactive | CC(C)(C)c1ccc(/C=C2\CCn3c2nc2cc(C(=O)O)ccc2c3=O)cc1
32 | inactive | Nc1cccc2c(=O)[nH][nH]c(=O)c12
33 | inactive | COc1ccc(OC)c(C=NNC(=O)c2ccc(NS(=O)(=O)c3cccs3)cc2)c1
34 | inactive | Cc1cccn2c(=O)c(C=NCc3ccccc3)c(NCCO)nc12
35 | inactive | CCN1CCN(C(=O)c2ccc3nc(-c4ccccc4)c(-c4ccccc4)nc3c2)CC1
36 | inactive | O=C(O)c1cc(N2CCCCC2)nc2ccccc12
37 | inactive | Cc1cc(C)cc(N(CC(=O)NC2CCCC2)C(=O)C2(C)CC(=O)N=C3C=CC=CN32)c1 (centres undefined)
38 | inactive | Cc1cc(=O)oc2cc(NC(=O)CN3C(=O)NC(C)(c4ccccc4)C3=O)ccc12 (centres undefined)
39 | inactive | COC(=O)C1=C(C)NC2=C(C(=O)CCC2)C1c1ccc(-c2ccsc2C(=O)OC)o1 (centres undefined)
40 | inactive | O=C(NCCc1ccc(Cl)cc1Cl)C1=CC=CN2CCS(=O)(=O)N=C12
41 | inactive | CCOc1ccc2[nH]c3ncccc3c(=O)c2c1
42 | inactive | Cc1c(C(C)NC(=O)c2cc(COc3cccc4cnccc34)on2)cnn1C (centres undefined)
43 | inactive | COc1cc2c(cc1OC)-c1cc(NCc3ccccn3)nc(=O)n1CC2
44 | inactive | COc1ccc(OC)c(C=NNC(=O)c2ccccc2NS(=O)(=O)c2cccs2)c1
45 | inactive | COc1ccccc1N1CCN(C(=O)c2cc3c(=O)n4cccc(C)c4nc3s2)CC1
46 | 13.2 µM | Cc1cc(NC(=O)COC(=O)c2nccnc2N)n(-c2ccccc2)n1
47 | inactive | CCOC(=O)N1CCN(S(=O)(=O)c2ccc3c4c(cccc24)C(=O)N3)CC1
48 | inactive | C(=C\c1ccc2nncn2c1)/c1ccccc1
49 | inactive | CCNC(=O)/C(C#N)=C/c1c(N2CCN(c3ccccc3)CC2)nc2ccccn2c1=O
50 | inactive | CCCCN(C)C(=O)c1cc2cc3ccc(OC)cc3nc2o1
51 | inactive | CCOc1ccc(NC(=O)COC(=O)c2ccc3ncsc3c2)cc1OCC
52 | inactive | COc1ccc(Nc2cc3n(c(=O)n2)CCc2cc(OC)c(OC)cc2-3)cc1

Row | IC50 | Structure (SMILES)
53 | inactive | O=C(N/N=C/c1c(O)n(-c2ccccc2Cl)c(=O)c2ccccc12)C1COc2ccccc2O1 (centres undefined)
54 | inactive | Cc1ccc2c(c1)COc1c3ccc(C(=O)NCCO)cc3nn1-2
55 | inactive | COCCCNC(=O)/C(C#N)=C/c1c(N2CCN(c3ccccc3)CC2)nc2ccccn2c1=O
56 | inactive | CCOC(=O)CNC(=O)c1sc(NC(=O)c2ccccc2F)nc1C
57 | inactive | COc1ccccc1/C=N/NC(=O)c1ccccc1NS(=O)(=O)c1ccc(C)cc1
58 | inactive | COc1cc(OC)cc(-c2oc3cccnc3c2C#CCCO)c1
59 | inactive | CCCCCCc1c(C)c2ccc(OCC(=O)N3CCC[C@H]3C(=O)O)c(C)c2oc1=O
60 | > 100 µM (inactive) | O=C(N/N=C/c1ccc2cccnc2c1)c1nc2ccccc2c(=O)[nH]1
61 | inactive | CN1CCOc2c1cnn(CCO)c2=O
62 | > 100 µM (inactive) | Nc1nnc(-c2cc3ccccc3oc2=O)s1
63 | inactive | S=c1[nH]c2nc(Cl)c(Cl)nc2[nH]1
64 | inactive | COc1ccc(C(=O)n2cc(C(=O)c3cc(C)ccc3O)cn2)cc1OC
65 | inactive | c1ccc(-c2oc3ncnc(NCCCN4CCOCC4)c3c2-c2ccccc2)cc1
66 | inactive | O=C(NC1CCCCC1)C(c1ccncc1)n1c(=O)c(-c2ccccc2)nc2ccccc21 (centres undefined)
67 | 19.7 µM | COc1ccc2cc3cc(C(=O)NCCc4ccc(OC)c(OC)c4)oc3nc2c1
68 | inactive | COc1ccc(OCC(=O)N/N=C/c2ccc(N(C)C)cc2)cc1
69 | inactive | COC(=O)C1=C(C)NC2=C(C(=O)C(C(=O)OC)C(c3ccc(OC)cc3)C2)C1c1ccccn1 (centres undefined)
70 | inactive | CC1CCCC(C)N1C(=O)CN1c2cccc3cccc(c23)S1(=O)=O (centres undefined)
71 | inactive | c1cnc2cc(-c3ccsc3)ncc2c1
72 | inactive | NC(=O)C1CCN(C(=O)c2ccc3nc(-c4ccccc4)c(-c4ccccc4)nc3c2)CC1
73 | inactive | COCCNc1c2c(c(C#N)c3nc4ccccc4n13)CCCC2
74 | inactive | Cc1cccn2c(=O)c3cc(C(=O)N4CCCCC4C)sc3nc12 (centres undefined)
75 | 13.9 µM | O=C(Nc1cccnc1Cl)c1cc(-c2cccc(O)c2)on1
76 | > 100 µM (inactive) | Cc1ccc2nc(-c3ccc(NC(=O)COCC(=O)O)cc3)sc2c1
77 | inactive | CCN(CC)c1ccc(/C=N/NC(=O)CC(C)C)cc1
78 | inactive | O=C(CN1c2cccc3cccc(c23)S1(=O)=O)NCc1ccc(F)cc1

Row | IC50 | Structure (SMILES)
79 | > 100 µM (inactive) | COCc1cc(C)nc2sc(C(=O)Nc3ccc(OC)cc3)c(N)c12
80 | > 100 µM (inactive) | CCC(=O)Nc1nnc(/C=C/c2ccccc2)s1
81 | inactive | COC(=O)c1nc2cc3c(cc2c(C)c1C(=O)OC)OCO3
82 | inactive | Cn1c(=O)c(-c2ccccc2)nc2ccccc21
83 | inactive | Cc1cc(NS(=O)(=O)c2ccc(NS(=O)(=O)c3ccc(Br)cc3)cc2)no1
84 | inactive | Cn1ncc2cc3c(Nc4ccc(Cl)cc4)cccc3nc21
85 | inactive | COc1ccc(C(CC(=O)N2CCCCC2)c2c(OC)cc(OC)c3ccc(=O)oc23)cc1 (centres undefined)
86 | inactive | O=C(CCc1ccccc1)Nc1nnc(-c2ccccn2)o1
87 | inactive | c1cc2c3c(cccc3c1)-c1cnccc1-2
88 | inactive | COCCNC(=O)COC(=O)c1cc(-c2ccc(OC)cc2)nc2ccccc12
89 | inactive | CCc1c(C)c2ccc(OC(C)C(=O)NC(Cc3c[nH]c4ccc(O)cc34)C(=O)O)c(C)c2oc1=O (centres undefined)
90 | inactive | CCN(CC)c1ccc(/C=N/NC(=O)C(O)c2ccccc2)cc1 (centres undefined)
91 | inactive | COc1cccc(N(C(=O)c2snc(C(N)=O)c2N)C(C(=O)NCc2ccccc2)c2ccc(O)cc2)c1 (centres undefined)
92 | 10.4 µM | COc1ccc(Cl)cc1NC(=O)Cn1nnc(C(=O)NCc2ccc3c(c2)OCO3)c1N
93 | inactive | COc1ccc2sc(-c3ccc(SC)cc3)c(C#CCO)c2c1
94 | 14.9 µM | CCN(CC)c1ccc(/C=N/NC(=O)CNC(=O)c2cccs2)cc1
95 | inactive | COc1ccc(-c2cc(C(=O)N(C)CC(=O)Nc3ccccc3Cl)c3ccccc3n2)cc1OC
96 | inactive | COc1cc2sc(-c3ccc(S(C)(=O)=O)cc3)c(C#CCO)c2cc1OC
97 | inactive | OC1CCCN(Cc2c3ccccc3cc3ccccc23)C1 (centres undefined)
98 | inactive | COCCN1C=C(C(=O)OC)C(c2ccc3c(c2)OCO3)C(C(=O)OC)=C1
99 | inactive | CCN(/N=C/c1ccc(N(C)C)cc1)c1nc2ccccc2[nH]1
100 | inactive | COc1cc(C=NNC(=O)c2ccc(NS(=O)(=O)c3cccs3)cc2)cc(Br)c1O
101 | inactive | COC(=O)c1ccc(-c2ccc(/C=N/NC(=O)CC3(C)OCCCO3)o2)cc1
102 | inactive | Cc1ccc(C)c(OCC(=O)N/N=C/c2ccc(N3CCOCC3)cc2)c1

Row | Structure (SMILES) | IC50
103 | C[n+]1ccc(-c2ccccc2)c2ccccc21 | > 100 µM (inactive)
104 | CC(=CCOc1ccc2ccc(=O)oc2c1)C1=CC(=O)C(C)(C)O1 | inactive
